Test results published in patent US12686704B2, “Procoagulant peptides and use thereof” (RAMBAM MED-TECH LTD., priority 2021, dated 2026).

Columns and labels:
rat = experiment: Rat models of uncontrolled hemorrhage (spleen transection, liver laceration); format: in vivo; settings: for bleeding (blood loss): 150 μg/kg subcutaneous half an hour before surgery, I.V. 2 minutes following trauma, or topical, FIGS. 2A-2F; for bleeding (blood loss) / bleeding time: vs PBS control; for bleeding time: FIG. 2G
Procedure: FIGS. 2A-2I include vertical bar graphs showing the effect of modified heparanase procoagulant peptides of the invention using different rat bleeding models. Two rat models of uncontrolled hemorrhage were applied. The models include spleen transection (2A) and liver laceration (2B). Blood loss was recorded every 2 minutes for the first 10 minutes after injury and at 5-minutes intervals thereafter for a total of 30 minutes. Shed blood were collected by placing reweighed gauze below the organ targeted for injury. The gauze was changed and weighed at the blood-loss intervals. Peptides 16 and 16AC were injected subcutaneously (150 μg/kg) half an hour before surgery (2A-2B) or intravenously (I.V.) in the saphenous vein (150 μg/kg) 2 minutes following the trauma (2C, 2D, 2H, and 2I). The third route of administration was topical application (150 μg/kg) on the incision site (2E-2F). The peptides were dissolved in phosphate-buffered saline (PBS) and added at a rate of a drop every 5 seconds. Control group (‘C’) was administered (either subcutaneously, intravenously, or topically) with the vehicle phosphate buffered saline (PBS). […] Mann-Whitney U test was used. Results represent mean±SD. *p<0.01, **p<0.001. In addition to Peptide 16 and Peptide 16AC, Peptide 16C, and Peptide 16A were also analyzed and compared in (2H and 2I).
Two rat models of uncontrolled hemorrhage were applied as previously described (Morgan et al., 2015; JAMA Surg.). The models included spleen transection (FIG. 2A) and liver laceration (FIG. 2B). Briefly, blood loss was recorded every 2 minutes for the first 10 minutes after injury and at 5-minute intervals thereafter for a total of 30 minutes. Shed blood were collected by placing reweighed gauze below the organ targeted for injury. The gauze was changed and weighed at the blood-loss intervals. Peptides 16 and 16AC were injected subcutaneous (150 μg/kg) half an hour before surgery (FIGS. 2A-2B) or intra-venous (I.V.) in the saphenous vein (150 μg/kg) 2 minutes following the trauma (FIGS. 2C-2D). The third route of administration was topical application (150 μg/kg) on the incision site (FIGS. 2E-2F). The peptides, dissolved in phosphate-buffered saline (PBS), were added at a rate of a drop every 5 seconds. Control (C) group was injected or topical applied with the vehicle phosphate buffered saline (PBS).

[1] = molecular target: lipidated TF, factor VIIa, factor X (Homo sapiens, UniProt P13726); experiment: Factor X activation assay of purified proteins (chromogenic substrate); format: biochemical; settings: peptides at 5 μg/ml and 10 μg/ml; compared to control; FIG. 1A
Procedure: FIGS. 1A-1C include vertical bar graphs and thromboelastography (TEG) curves, showing that peptide 16 and peptide 16AC increase coagulation. Peptide 16 and 16AC were studied in an assay of purified proteins that included lipidated TF (4 nM), factor VIIa (40 nM), factor X (1.4 μM) and assay buffer. Factor X activated form (Xa) level was studied using a chromogenic substrate (1 mM). […] Bovine factor Xa diluted in the assay buffer was used to generate a standard curve. Without addition of TF (two right columns), no factor Xa was generated. […] (1B) A citrated pooled normal human blood sample (n=3) was left for 4 hours at room temperature in order to expose TF in bloods cells. Following this period, the peptides 16 and 16AC were added (5 μg/ml) along with calcium. […] Representative TEG curves are shown. (1C) The study presented in FIG. 1B was repeated 3 times with different pooled plasma. […] Peptide 16 (non-modified); peptide 16 comprising a C-terminal amid group (16A); peptide 16 comprising an N-terminal acetyl group (16C); and peptide 16 comprising a C-terminal amid group and an N-terminal acetyl group (16AC). In 1B: for control—SP min=11.2; R min=12.8; K min=3.8, Angle deg=52.0; and MA mm=47.9, for Peptide 16—SP min=5.2; R min=6.4; K min=2.8, Angle deg=63.3; and MA mm=50.4, and for Peptide 16AC—SP min=4.7; R min=5.6; K min=2.5, Angle deg=63.1; and MA mm=53.8.
Peptides 16, 16C, 16A and 16AC were studied in an assay of purified proteins that included lipidated TF (0.004 μM), factor VIIa (0.04 μM), factor X (1.4 μM) and assay buffer. Factor X activated form (Xa) level was studied using a chromogenic substrate (1 mM). […] Bovine factor Xa diluted in the assay buffer was used to generate a standard curve. Without addition of TF (two right columns), no factor Xa was generated.

ICR mice = experiment: Wound healing after full thickness skin incision in ICR mice; format: in vivo, mouse; settings: for number of capillaries (vessels) in wound skin tissue: H&E staining at end of experiment, FIGS. 4D-4E; for wound healing (wound size): S.C. opposite to the wound on alternate days for one week, FIGS. 4A-4B
Procedure: FIGS. 4A-4E include images, micrographs, and graphs showing that that modified heparanase procoagulant peptides of the invention enhance wound healing. (4A) Full thickness incision of 10 mm was made in the back skin of ICR (normal, no genetic background) mice. On alternate days, for one week after surgery, peptide 16 or peptide 16AC was injected subcutaneously (S.C.) opposite to the wound at the indicated dose. Control group was injected the vehicle (PBS). […] Similar results were observed when the peptides were topically applied as a cream preparation (4C). n—number of mice. Mann-Whitney U test was used. Results represent mean±SD, **p<0.001, ***p<0.0001. (4D) At the end of the experiment the mice were sacrificed and the skin tissue from the wound site excised, and histologically analyzed using hematoxylin and eosin (H&E) staining. Representative images are shown. […] The number of capillaries presented reflects the median and range of five different fields. Mann-Whitney U test was used. Results represent mean±SD, *p<0.01, **p<0.001.
Full thickness incision of 10 mm was made in the back skin of ICR (normal, no genetic background) mice. On alternate days, for one week after surgery, peptide 16 was injected sub-cutaneous (S.C.) opposite to the wound at the indicated dose. Control group was injected the vehicle (PBS). […] Similar results were obtained when the peptides were applied topically in a cream preparation (FIG. 4C). At the end of the experiment the mice were sacrificed and the skin tissue from the wound site was analyzed using H&E staining.

Chain of lipidated TF, factor VIIa, factor X (P13726 33-295): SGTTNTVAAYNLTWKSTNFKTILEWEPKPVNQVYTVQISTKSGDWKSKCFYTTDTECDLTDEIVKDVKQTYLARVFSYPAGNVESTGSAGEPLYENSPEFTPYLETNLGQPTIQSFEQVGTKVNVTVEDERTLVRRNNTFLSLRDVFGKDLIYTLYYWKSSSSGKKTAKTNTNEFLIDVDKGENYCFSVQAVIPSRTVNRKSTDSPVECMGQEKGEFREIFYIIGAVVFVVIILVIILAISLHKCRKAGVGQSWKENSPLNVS
Chain of lipidated TF, factor VIIa, factor X (P08709 61-212 partner limits assumed): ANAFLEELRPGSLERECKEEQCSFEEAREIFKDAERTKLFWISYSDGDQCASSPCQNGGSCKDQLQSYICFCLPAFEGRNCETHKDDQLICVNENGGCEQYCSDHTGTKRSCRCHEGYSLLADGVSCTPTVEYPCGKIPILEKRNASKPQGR
Chain of lipidated TF, factor VIIa, factor X (P08709 213-466 partner limits assumed): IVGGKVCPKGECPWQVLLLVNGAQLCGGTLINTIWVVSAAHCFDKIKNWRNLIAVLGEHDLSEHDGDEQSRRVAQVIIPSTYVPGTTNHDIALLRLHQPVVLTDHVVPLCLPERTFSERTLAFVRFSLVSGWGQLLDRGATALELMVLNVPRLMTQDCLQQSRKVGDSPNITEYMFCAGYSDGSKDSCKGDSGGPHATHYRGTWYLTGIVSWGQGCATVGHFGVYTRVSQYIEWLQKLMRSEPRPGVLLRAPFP

Row | Substance | bleeding (blood loss) (rat) | bleeding time (rat; 150 μg/kg) | activation of factor X (factor Xa level) [1] | number of capillaries (vessels) in wound skin tissue (ICR mice) | wound healing (wound size) (ICR mice) | effect in reducing the bleeding, comparison between peptides (rat; 150 μg/kg, FIGS. 2A-2I (16C and 16A: I.V., FIGS. 2H-2I)) | number of capillaries (vessels) in wound skin tissue (ICR mice; listed as peptide 16AC)
1 | GSKRRKLRVYLHCT [Peptide 16, peptide comprising the procoagulant domain of heparanase, non-modified] | significant reduction | significant reduction | significantly increased activation of factor X compared to control | significant increase of capillaries | significantly enhanced wound healing |  | 
2 | acetyl-GSKRRKLRVYLHCT-amid (Ac-GSKRRKLRVYLHCT-NH2) [Peptide 16AC, peptide 16 comprising a C-terminal amid group and an N-terminal acetyl group] | significant reduction | significant reduction | significantly increased activation of factor X compared to control | significantly better effect | significantly better effect on wound size | significantly better effect in reducing the bleeding compared to peptide 16 | significant increase of capillaries
